Experimental data as given in US10646565B2, “Treatment of alzheimer'S disease (AD) with an aluminum salt” (AFFIRIS AG, priority 2014, dated 2020).

How the values were obtained:
patients with early AD = assay: AFF006 clinical trial: MRI volume-based morphometry of hippocampus; format: in vivo, human; details: 2 mg group of patients, FIG. 4
Description: EMEA and FDA criteria recommend newer techniques, such as MRI, especially atrophy of entorhinal or (para-) hippocampal cortex. With the present invention, PET (Positron emission tomography)-MRI was applied. More specifically, volume of right hippocampus (important for learning and memory of material that is difficult to verbalise) is used according to the present invention as significant AD biomarker for treatment success.
Hippocampus (left and right), and whole lateral ventricle ROIs were delineated on an anatomical MRI template in order to generate the atlas for volumetric measures. The volumes of the hippocampus and lateral ventricles for each subject were determined using a fully-automated method which combines transformations derived from the nonlinear registration of the atlas labels to individual subject scans and subject-specific image information (Collins et al., J. Comput. Assist. Tomogr., 18: 192-205, 1994). Lateral ventricle and hippocampal segmentations that failed post-processing QC review were manually corrected. The total intracranial volume (TIV) was estimated from the brain mask generated during pre-processing and the average TIV (TIVavg) for each subject was determined by averaging the estimated TIV across visits. […]

[1] = aluminium oxyhydroxide; cited from earlier work

For aluminium oxyhydroxide, the “MRI data (volume of right hippocampus)” value (patients with early AD) is listed as “statistically significant disease modifying effect” and the “point of zero charge” value [1] is listed as about 11 pH.
